Measurements taken from PMC9905339 (Biochemistry, 2023).

Tests used:
MmaE = MmaE (Mycobacterium marinum, UniProt B2HKM3); assay: LC-HRMS of Py-AP after tetrazine click; type: biochemical; details: α-KG, Fe(II), 50 mM HEPES pH 8.0, room temperature
Rv0099 = Rv0099 (Mycobacterium tuberculosis, UniProt P9WQ55)
MmaA = MmaA (Mycobacterium marinum, UniProt B2HKL9)
Chain of MmaA (B2HKL9 whole entry): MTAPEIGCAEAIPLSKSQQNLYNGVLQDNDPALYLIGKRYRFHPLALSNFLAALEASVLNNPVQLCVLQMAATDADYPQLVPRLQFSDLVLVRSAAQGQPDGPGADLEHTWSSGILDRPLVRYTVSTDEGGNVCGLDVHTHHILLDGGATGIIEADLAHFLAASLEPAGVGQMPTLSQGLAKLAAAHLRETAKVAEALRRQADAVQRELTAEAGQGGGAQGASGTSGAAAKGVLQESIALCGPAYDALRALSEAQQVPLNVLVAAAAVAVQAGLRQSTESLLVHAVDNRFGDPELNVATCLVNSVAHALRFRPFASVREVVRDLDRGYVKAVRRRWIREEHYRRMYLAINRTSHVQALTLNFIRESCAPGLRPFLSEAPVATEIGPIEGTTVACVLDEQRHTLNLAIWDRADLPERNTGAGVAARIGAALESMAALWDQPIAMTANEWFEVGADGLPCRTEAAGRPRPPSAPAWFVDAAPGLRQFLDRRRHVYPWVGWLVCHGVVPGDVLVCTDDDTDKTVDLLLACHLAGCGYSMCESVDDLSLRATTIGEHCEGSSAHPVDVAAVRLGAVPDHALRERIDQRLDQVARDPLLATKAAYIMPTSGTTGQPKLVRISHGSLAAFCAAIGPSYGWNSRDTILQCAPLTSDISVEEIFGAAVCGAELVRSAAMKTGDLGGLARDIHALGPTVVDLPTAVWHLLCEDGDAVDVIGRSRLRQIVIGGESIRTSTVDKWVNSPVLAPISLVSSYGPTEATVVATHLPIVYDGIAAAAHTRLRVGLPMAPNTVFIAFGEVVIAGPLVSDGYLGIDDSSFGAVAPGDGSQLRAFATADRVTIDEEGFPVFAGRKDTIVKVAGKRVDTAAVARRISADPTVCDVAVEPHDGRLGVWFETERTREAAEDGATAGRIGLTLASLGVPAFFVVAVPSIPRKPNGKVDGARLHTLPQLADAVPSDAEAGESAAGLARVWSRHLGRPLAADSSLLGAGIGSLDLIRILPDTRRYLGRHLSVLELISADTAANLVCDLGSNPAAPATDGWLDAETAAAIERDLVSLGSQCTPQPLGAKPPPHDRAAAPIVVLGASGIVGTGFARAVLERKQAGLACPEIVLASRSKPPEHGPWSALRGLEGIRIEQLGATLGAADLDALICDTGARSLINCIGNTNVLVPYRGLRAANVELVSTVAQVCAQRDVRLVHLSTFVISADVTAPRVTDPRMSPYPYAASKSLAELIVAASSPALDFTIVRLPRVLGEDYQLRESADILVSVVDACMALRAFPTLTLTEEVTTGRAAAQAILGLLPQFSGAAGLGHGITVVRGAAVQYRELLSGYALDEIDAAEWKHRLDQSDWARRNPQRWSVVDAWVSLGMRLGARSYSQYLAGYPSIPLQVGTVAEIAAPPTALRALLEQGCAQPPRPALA

Chain of Rv0099 (P9WQ55 whole entry): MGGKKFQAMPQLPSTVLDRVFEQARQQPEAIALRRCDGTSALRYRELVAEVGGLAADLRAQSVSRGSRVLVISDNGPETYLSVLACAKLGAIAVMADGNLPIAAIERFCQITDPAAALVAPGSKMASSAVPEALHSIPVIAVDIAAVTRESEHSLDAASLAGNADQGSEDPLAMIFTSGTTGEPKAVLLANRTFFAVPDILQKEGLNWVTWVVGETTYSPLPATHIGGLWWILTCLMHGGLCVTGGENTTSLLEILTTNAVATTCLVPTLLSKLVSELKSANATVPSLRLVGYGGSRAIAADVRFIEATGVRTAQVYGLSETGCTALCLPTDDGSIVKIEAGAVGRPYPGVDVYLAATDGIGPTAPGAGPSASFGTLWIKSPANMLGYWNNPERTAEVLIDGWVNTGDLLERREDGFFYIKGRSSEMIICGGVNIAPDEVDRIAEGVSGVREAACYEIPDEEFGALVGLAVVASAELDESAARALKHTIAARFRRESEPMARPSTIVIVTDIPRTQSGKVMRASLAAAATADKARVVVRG
Chain of MmaE (B2HKM3 whole entry): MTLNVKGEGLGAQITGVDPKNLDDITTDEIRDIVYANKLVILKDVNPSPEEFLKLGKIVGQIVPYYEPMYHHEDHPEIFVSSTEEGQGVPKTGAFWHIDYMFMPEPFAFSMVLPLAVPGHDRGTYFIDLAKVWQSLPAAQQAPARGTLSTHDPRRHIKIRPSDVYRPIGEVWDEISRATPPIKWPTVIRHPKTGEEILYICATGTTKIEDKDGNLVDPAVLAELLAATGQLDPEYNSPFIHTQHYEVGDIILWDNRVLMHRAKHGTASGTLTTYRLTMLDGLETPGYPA

Structure (SMILES) | LC-HRMS intact protein and Ppant ejection; loading onto holo-Rv0100 (Rv0099) | also measured
CCCCCCCC(CC(=O)O)NCC(=O)O (stereo not shown) [CADA, 3-[(carboxymethyl)amino]decanoic acid] |  | LC-HRMS of Py-AP after tetrazine click; turnover (MmaE): INDA was only detected from the assay with MmaE
CCCCCCCC=CC(=O)O [2-decenoic acid] | Rv0099-catalyzed reaction containing holo-Rv0100, 2-decenoic acid, and ATP | 
NCCCC[C@H](N)C(=O)O [lysine] |  | LC-HRMS of INLP6; coupled assay with Rv0097/MmaE and Rv0098-0100 (MmaA): together with 2-decenoic acid, ATP, Gly, α-KG, Lys, and NADPH, generated INLP6
[C-]#[N+]C(CCCCCCC)CC(=O)O (stereo not shown) [INDA, 3-isocyanodecanoic acid] | INDA, ATP, Rv0099, and Rv0100 yielded the expected product, INDA-S-Rv0100 | 
